Measured values taken from patent US10301320B2, “Compositions and methods of modulating 15-PGDH activity” (CASE WESTERN RESERVE UNIVERSITY, priority 2012, dated 2019).
Where two headings read alike, the source gives them in different places.

Biological target: recombinant 15-PGDH protein (Homo sapiens (Human), UniProt P15428)
Assay: Inhibition of enzymatic activity of recombinant 15-PGDH in vitro;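 also: activity of recombinant human 15-PGDH assayed in vitro using PGE2 as the substrate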
Type: biochemical
Details: read-out: Enzyme inhibition % ([…]), recombinant 15-PGDH, […] compound
[1] = read-out: Enzyme inhibition % (2.5 μM)
[2] = read-out: Enzyme inhibition % (7.5 μM)

Chain of recombinant 15-PGDH protein (P15428 whole entry): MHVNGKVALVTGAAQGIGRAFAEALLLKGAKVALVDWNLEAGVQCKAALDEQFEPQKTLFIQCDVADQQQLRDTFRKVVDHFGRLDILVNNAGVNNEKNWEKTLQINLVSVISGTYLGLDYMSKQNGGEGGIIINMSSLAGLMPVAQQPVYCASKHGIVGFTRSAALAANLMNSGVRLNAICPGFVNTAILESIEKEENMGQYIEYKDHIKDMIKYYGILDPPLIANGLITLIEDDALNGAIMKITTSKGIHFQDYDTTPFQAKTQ

inhibition at […] [1] [%] | inhibition at […] [2] [%] | SMILES
-12.2 | -10.5 | COc1ccc(OC)c(N(CC(=O)O)S(=O)(=O)c2ccccc2)c1 [SW122063]
23.1 | 35.2 | COc1ccc(OC)c(N(CC(=O)N2CCCCC2)S(=O)(=O)c2ccccc2)c1 [SW131633]
11.8 | 35.4 | COc1ccc(OC)c(N(CC(N)=O)S(=O)(=O)c2ccccc2)c1 [SW131635]
52.7 | 75.6 | COc1ccc(OC)c(N(CC(=O)Nc2ccncc2)S(=O)(=O)c2ccccc2)c1 [SW202938]
53.5 | 78.3 | COc1ccc(OC)c(N(CC(=O)Nc2cccnc2)S(=O)(=O)c2ccc(C)cc2)c1 [SW202939]
10.9 | 35.6 | COc1ccc(OC)c(N(CC(=O)Nc2ccccn2)S(=O)(=O)c2ccccc2)c1 [SW202941]
-7.42 | 21.8 | COc1ccc(OC)c(N(CC(=O)Nc2cccnc2)S(=O)(=O)c2ccccc2C)c1 [SW202943]
28.3 | 57.8 | COc1ccc(OC)c(N(CC(=O)Nc2cccnc2)S(=O)(=O)c2ccccc2C(F)(F)F)c1 [SW202944]
8.83 | 11.1 | COc1ccc(OC)c(N(CC(=O)Nc2cccnc2)S(=O)(=O)c2ccccc2C#N)c1 [SW202945]
81.6 | 89.8 | COc1ccc(OC)c(N(CC(=O)Nc2ccnc(Cl)c2)S(=O)(=O)c2ccccc2)c1 [SW202946]
28.8 | 59.2 | COc1ccc(OC)c(N(CC(=O)Nc2cccnc2)S(=O)(=O)c2ccccc2F)c1 [SW202947]
28.3 | 56.7 | COc1ccc(OC)c(NCC(=O)Nc2cccnc2)c1 [SW202948]
12.5 | 34.4 | COc1ccc(OC)c(N(CC(=O)Nc2cccnc2)S(=O)(=O)c2ccccc2Cl)c1 [SW202949]
46.3 | 56.4 | COc1ccc(OC)c(N(CC(=O)Nc2cccnc2)S(=O)(=O)c2ccc(C(C)=O)cc2)c1 [SW202950]
-15.4 | -8.59 | CCOC(=O)CN(c1cc(OC)ccc1OC)S(=O)(=O)c1ccccc1 [SW202951]
29 | 57 | COc1ccc(OC)c(N(CC(=O)Nc2cccnc2)C(C)=O)c1 [SW202952]
8.81 | 15.1 | COc1ccc(OC)c(N(CC(=O)Nc2cccnc2)S(=O)(=O)c2c(C)cc(C)cc2C)c1 [SW202953]
6.02 | 9.88 | COc1ccc(OC)c(N(CC(=O)Nc2cccnc2)S(=O)(=O)c2ccccc2OC(F)(F)F)c1 [SW202954]
11.3 | 33.1 | COc1ccc(OC)c(N(CC(=O)Nc2ccccc2OC)S(=O)(=O)c2ccccc2)c1 [SW202965]
44.7 | 61.4 | COc1ccc(OC)c(N(CC(=O)Nc2ccnc(C)c2)S(=O)(=O)c2ccccc2)c1 [SW202966]

inhibition at […] [1] [%] | inhibition at […] [2] [%] | SMILES
-11.6 | 0.94 | COc1ccc(OC)c(N(CC(=O)Nc2cnccc2C)S(=O)(=O)c2ccccc2)c1 [SW202967]
-7.09 | 0.78 | COc1ccc(OC)c(N(CC(=O)Nc2cccnc2C)S(=O)(=O)c2ccccc2)c1 [SW202968]
0.91 | 9.43 | COc1ccc(OC)c(N(CC(=O)Nc2cccc(C)c2)S(=O)(=O)c2ccccc2)c1 [SW202969]
17.5 | 48 | COc1ccc(OC)c(N(CC(=O)Nc2ccc(Cl)nc2)S(=O)(=O)c2ccccc2)c1 [SW202970]
-0.72 | -13.2 | COc1ccc(OC)c(N(CC(=O)OC(C)C)S(=O)(=O)c2ccccc2)c1 [SW202971]
-6.29 | -2.94 | COc1ccc(OC)c(N(CC(=O)Nc2cc(C)cnc2Cl)S(=O)(=O)c2ccccc2)c1 [SW202972]
3.3 | 13.6 | COc1ccc(OC)c(N(CC(=O)Nc2cccnc2Cl)S(=O)(=O)c2ccccc2)c1 [SW202973]
-4.42 | 24.9 | COc1ccc(OC)c(N(CC(=O)Nc2cncc(C)c2)S(=O)(=O)c2ccccc2)c1 [SW202974]
-14.8 | 4.53 | COc1ccc(OC)c(N(CC(=O)Nc2ccccc2C)S(=O)(=O)c2ccccc2)c1 [SW202975]
7.87 | 29.8 | COc1cccc(NC(=O)CN(c2cc(OC)ccc2OC)S(=O)(=O)c2ccccc2)c1 [SW202976]
4.14 | 3.12 | COc1ccc(OC)c(N(CC(=O)OC2CCCCC2)S(=O)(=O)c2ccccc2)c1 [SW202978]
3.92 | 6.24 | COc1ccc(OC)c(N(CC(=O)OC(C)(C)C)S(=O)(=O)c2ccccc2)c1 [SW202979]
-4.19 | 1.44 | COC(=O)CN(c1cc(OC)ccc1OC)S(=O)(=O)c1ccccc1 [SW202980]
13.8 | 30.9 | COc1ccc(OC)c(N(CC(=O)Nc2cccc(Cl)c2)S(=O)(=O)c2ccccc2)c1 [SW202985]
-2.22 | 2.58 | CCCOC(=O)CN(c1cc(OC)ccc1OC)[S@SP3](=O)(=O)c1ccccc1 [SW202986]
4.61 | 6.13 | COc1ccc(OC)c(N(CC(=O)Nc2ccccc2Cl)S(=O)(=O)c2ccccc2)c1 [SW202987]
10.3 | 33.7 | COc1ccc(OC)c(N(CC(=O)Nc2ccc(C)nc2)[S@SP3](=O)(=O)c2ccccc2)c1 [SW202988]
81.3 | 89.9 | COc1ccc(S(=O)(=O)N(CC(=O)Nc2ccncc2)c2cc(OC)ccc2OC)cc1 [SW202989]
22.9 | 47.2 | COc1ccc(OC)c(N(CC(=O)Nc2cncc(Cl)c2)S(=O)(=O)c2ccccc2)c1 [SW202990]
-14.7 | -6 | COc1ccc(OC)c(N(C(C)C(=O)Nc2cccnc2)S(=O)(=O)c2ccccc2)c1 (stereo not shown) [SW202991]

inhibition at […] [1] [%] | inhibition at […] [2] [%] | SMILES
34.8 | 62.1 | COc1ccc(OC)c(N(CC(=O)Nc2cccnn2)S(=O)(=O)c2ccccc2)c1 [SW203680]
36.8 | 64.9 | COc1ccc(OC)c(N(CC(=O)Nc2cnccn2)S(=O)(=O)c2ccccc2)c1 [SW203681]
15.7 | 36.2 | CNC(=O)CN(c1cc(OC)ccc1OC)S(=O)(=O)c1ccccc1 [SW203682]
23.4 | 57.1 | COc1ccc(OC)c(N(CC(=O)Nc2cncnc2)S(=O)(=O)c2ccccc2)c1 [SW203683]
36.4 | 64.7 | COc1ccc(OC)c(N(CC(=O)Nc2cccnc2)S(=O)(=O)c2cccc(C)c2)c1 [SW203684]
44.3 | 73.3 | COc1ccc(OC)c(N(CC(=O)Nc2ccnnc2)S(=O)(=O)c2ccccc2)c1 [SW203685]
14.9 | 34.2 | COc1ccc(OC)c(N(CC(=O)N(C)c2cccnc2)S(=O)(=O)c2ccccc2)c1 [SW203686]
15.1 | 33.5 | COc1ccc(OC)c(N(CC(=O)Nc2ccccc2)S(=O)(=O)c2ccccc2)c1 [SW203687]
13.1 | 40 | COc1ccc(OC)c(CN(CC(=O)Nc2cccnc2)S(=O)(=O)c2ccccc2)c1 [SW203688]
2.62 |  | COc1ccc(OC)c(N(CC(=O)Nc2nccs2)S(=O)(=O)c2ccccc2)c1 [SW203691]
5.82 | 12.5 | COc1ccc(OC)c(N(CC(=O)N2CCCCCC2)S(=O)(=O)c2ccccc2)c1 [SW208000]
21.8 | 27.7 | COc1ccc(OC)c(N(CC(=O)N2CCCC2)S(=O)(=O)c2ccccc2)c1 [SW208001]
34.7 | 59.2 | COc1ccc(OC)c(N(CC(=O)N2CCCC2=O)S(=O)(=O)c2ccccc2)c1 [SW208002]
15.2 | 20.9 | COc1ccc(OC)c(N(CC(=O)N2CCc3ccccc32)S(=O)(=O)c2ccccc2)c1 [SW208003]
52.3 | 57 | COc1ccc(OC)c(N(CC(=O)Nc2ccncc2F)S(=O)(=O)c2ccccc2)c1 [SW208004]
44.1 | 52 | COc1ccc(OC)c(N(CC(=O)Nc2ccnc(F)c2)S(=O)(=O)c2ccccc2)c1 [SW208005]
15.7 | 24.8 | COc1ccc(OC)c(N(CC(=O)N2CCCc3ccccc32)S(=O)(=O)c2ccccc2)c1 [SW208006]
58.7 | 70.9 | COc1ccc(S(=O)(=O)N(CC(=O)Nc2cccnc2)c2cc(C(F)(F)F)ccc2C(F)(F)F)cc1 [SW208008]
